In assay [1] the target is T1, G2A (Mus musculus, UniProt Q9Z282).
T1 construct: expressed in transfected cells; host or cells: MCF 10A (human breast epithelial cells, no endogenous G2A), plasmid pEXV3 G2A.GFP
T1 sequence (Q9Z282 1-382): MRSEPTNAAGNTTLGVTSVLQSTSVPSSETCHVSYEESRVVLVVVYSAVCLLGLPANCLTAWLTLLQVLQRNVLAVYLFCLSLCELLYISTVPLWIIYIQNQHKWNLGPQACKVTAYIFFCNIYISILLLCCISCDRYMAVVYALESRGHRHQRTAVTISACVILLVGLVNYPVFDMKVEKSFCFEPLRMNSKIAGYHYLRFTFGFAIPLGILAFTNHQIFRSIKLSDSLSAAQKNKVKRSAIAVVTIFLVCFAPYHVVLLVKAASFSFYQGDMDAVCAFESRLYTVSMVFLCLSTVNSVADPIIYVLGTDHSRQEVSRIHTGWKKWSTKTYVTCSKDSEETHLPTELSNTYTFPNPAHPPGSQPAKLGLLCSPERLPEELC
Briefly: Radioligand binding assay with cell homogenates of HEK 293 G2A.GFP cells. Conditions: HEK 293 G2A.GFP cell homogenate. As for the experimental part:
To characterise the binding of LPC and SPC to G2A, we performed radioligand binding assays as described previously (Xu, Y, e al, Nature Cell Biology, 2: pp261-267, 2000). [^3H] 16:0 LPC and [^3H] SPC bound to cell homogenates from G2A expressing HEK 293 cells in a time-dependent manner and reached equilibrium after 60 minutes incubation at 4° C. (FIGS. 5A and B). […] LPC and [^3H] SPC. Binding of [^3H] LPC and [^3H] […] The maximum binding capacities for LPC and SPC were approximately 1,503 fmole/10^5 cells and 1,840 fmole/10^5 cells respectively.
Binding assay HEK 293 GFP or HEK 293 G2A.GFP cells were serum starved for 20 hours and subsequently collected in PBS/EDTA. Pelleted cells were stored at −80° C. until use. Frozen cells (10^6 cells/ml) were homogenized in “binding buffer” containing 20 mM Tris-HCl pH 7.5, 100 mM NaCl, 15 mM NaF, 0.2 mM PMSF, 1 mM MgCl2 and 4 mg/ml fatty acid-free BSA in a tight-fit glass Dounce homogeniser. Assays were performed in 96-well plates in triplicate with 100 μl cell homogenate (equivalent to 10^5 cells/well). Varying amounts of [^3H] 16:0 LPC or [^3H] SPC were added to cell homogenates in 50 μl of binding buffer in the presence or absence of cold 16:0 LPC or SPC, or other competitors. Plates were incubated at 4° C. for 2 hours, or for the indicated times. Cell-bound [^3H] LPC or [^3H] SPC was collected onto a filter (Printed Filtermat A, Wallac, Gaithersburg, Md.) using an automated cell harvester (HARVESTER 96, Tomtec, Orange, Conn.). A pause wash programme (five cycle washes) was used. Filters were presoaked in 1% polyethyleneimine (Sigma) to prevent nonspecific binding, dried, sealed in bags (Sample Bag, Wallac) with 4.5 ml Betaplate “Scint” scintillation cocktail (Wallac), and counted in a 1450 Microbeta Trilux Liquid Scintillation and Luminescence Counter (Wallac). Specific binding was calculated by subtraction of nonspecific binding (binding detected in the presence of 100-fold excess unlabelled lipid) from total binding.

Assay [2] has as its target T1, G2A. Nature of the assay: Calcium assay ([Ca2+]i, Fura-2) in G2A.GFP transfected MCF 10A cells. The class given is cell-based. As for the experimental part:
MCF 10A cells were cultured in specialised glass-bottom dishes (Bioptech, Inc., Butler, Pa.) and loaded with Fura-2/AM ([…]; Molecular Probes) at 37° C. for 30 minutes in HEPES buffered saline (pH 7.4) containing 125 mM NaCl, 5 mM KCl, 1.2 mM MgSO4, 11 mM glucose, 1.8 mM CaCl2, 25 mM HEPES, 0.2% BSA. Loaded cells were washed, placed in HEPES buffeted saline without BSA, and incubated for 30 minutes at ambient temperature ensure dye hydrolysis by cytosolic esterases. Using a dual-wavelength spectrofluorometer (RFK-6002, Photon Technology Int'l, So. Brunswick, N.J.) coupled to an inverted fluorescence microscope (Olympus, IX-70, Lake Success, N.Y.), GFP-positive cells were identified using an excitation wavelength of 488 nm, a dichroic 505 nm long-pass and an emitter bandpass of 535 nm (Chroma Technology, Brattleboro, Vt.). [Ca^2+], measurements were performed on individual GFP-positive cells at excitation wavelengths of 340 nm and 380 nm, and an emission wavelength of 510 nm. Prior to data acquisition, background fluorescence (areas without cells) was measured and automatically subtracted from subsequent measurements. Agonists were diluted in HEPES buffered saline and solution changes accomplished by rapidly aspirating the buffer and replacing it with HEPES buffered saline containing the specific agonist. Fura-2 fluorescence signals (340 nm, 380 nm and the 340/380 ratio) originating from individual GFP-positive cells were continuously monitored at a sampling frequency of 25 Hz and collected using a software package from Photon Technology International (Felix™). Conversion of the 340 nm/380 nm ratio value into [Ca^2+]i was estimated by comparing the cellular fluorescence ratio with ratios acquired using Fura-2 (free acid) in buffers containing known Ca^2+ concentrations. [Ca^2+]i was then calculated as described by Grynkiewicz, et al (Grynkiewicz, G, et al, J Biol Chem, 260: pp3440-3450, 1985). All assays were performed in assay buffers containing 1 mM EGTA to exclude measurement of calcium influx.
To address whether G2A is a lysophospholipid receptor, we examined signalling events in cells ectopically expressing G2A as functional correlates of receptor activation. […] [Ca^2+]i measurements were performed in MCF 10A cells transfected with plasmids encoding green fluorescent protein (GFP) tagged G2A (pEXV3 G2A.GFP) (Kabarowski, J H S, et al, PNAS, 97: pp12109-12114, 2000) or GFP as described (Yan Xu and Derek S. Damron, Methods in Molecular Medicine, 39: Ovarian Cancer: Methods and Protocols, pp611-619, 2000). […] Similarly, dose-dependent responses of G2A.GFP transfected cells to SPC were observed, with an EC50 of approximately 0.4 μM (FIG. 4B). […] Responses to these agonists were not affected by G2A.GFP expression (FIG. 4A, middle and lower panels).

Here are results for one substance from patent US6709830B2, “Methods for modulating the activation of a lymphocyte expressed G protein coupled receptor involved in cell proliferation, autoimmunity and inflammation” (The Regents of the University of California, priority 1997, dated 2004).

“Also recorded” adds a separate entry of the source.

As usually defined, the Kd is the constant that tells how readily two partners part at equilibrium. What is called EC50 is the concentration at which the effect is half-maximal.

As to lysophosphatidylcholine [LPC], the Kd at G2A [1] (Scatchard analysis, saturation binding of [3H] 16:0 LPC or [3H] SPC, 4° C., read-out: dissociation constant (Kd)) is 65 nM. Moreover, the maximum binding capacity entry at G2A [1] (saturation binding) is reported as “approximately 1,503 fmole/10^5 cells”. Further, the EC50 on G2A [2] (G2A.GFP transfected MCF 10A cells, 1 mM EGTA in buffer, read-out: EC50 of dose-dependent increase in [Ca2+]i) was around 100 nM. The “transient increase in [Ca2+]i” value on G2A [2] (G2A.GFP transfected MCF 10A cells, LPC 0.1 μM, SPC 0.1 μM, LPA 1 μM, PAF 0.1 μM, ATP 20 μM) was “induced a transient increase; also recorded: induce transient [Ca^2+], increases”. Besides, the “desensitisation to subsequent stimulation with LPC or SPC (1 μM)” value on G2A [2] (pretreatment 5 minutes with LPC 1 μM or SPC 10 μM (b23 prints SPC 1.0 μM), G2A.GFP-transfected MCF 10A cells) is “induced homologous and heterologous desensitisation”.
